# According to patent US10005767B2, “Compositions and methods for inhibition of the JAK pathway” (Rigel Pharmaceuticals, Inc., priority 2009, dated 2018):
# System: human primary T-cells, IL-2 stimulated proliferation (JAK-1 and JAK-3 dependent; reported as JAK3 activity)
# Experiment: Human primary T-cell proliferation stimulated by IL-2 (Example 3)
# Format: cell-based
# Details: Homo sapiens, T-cell, tested under conditions described in Example 3 (IL-2 stimulated human primary T-cell proliferation); read-out: ability to inhibit JAK3 activity, IC50 range (Table V)
# In short: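 Peripheral-blood human T-cells pre-activated via TCR/CD28, IL-2-starved overnight, then cultured 72 h at 37 °C with compound in Yssel's medium containing IL-2 (80 U/mL in cell suspension). Proliferation read as viable-cell ATP by CellTiter-Glo luminescence; reduction versus control taken as JAK pathway inhibition.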
row,Compound,IC50
1,"Cc1cnc(Nc2ccc(Br)c(C(F)(F)F)c2)nc1Nc1ccc2oc(=O)[nH]c2c1 [Compound I-188, 5-[2-(4-Bromo-3-trifluoromethyl-phenylamino)-5-methyl-pyrimidin-4-ylamino]-3H-benzooxazol-2-one]",< 500 nM
2,"Cc1cnc(Nc2cc(C(C)NC3CCC3)cc(C(F)(F)F)c2)nc1Nc1ccc2oc(=O)[nH]c2c1 (stereo not drawn) [Compound I-465, 5-(2-(3-(1-(cyclobutylamino)ethyl)-5-(trifluoromethyl)phenylamino)-5-methylpyrimidin-4-ylamino)benzo[d]oxazol-2(3H)-one]",< 500 nM
3,"Cc1cnc(Nc2cccc(S(C)(=O)=O)c2)nc1Nc1cc(C)c2oc(=O)[nH]c2c1 [Compound I-244, 7-methyl-5-(5-methyl-2-(3-(methylsulfonyl)phenylamino)pyrimidin-4-ylamino)benzo[d]oxazol-2(3H)-one]",< 500 nM
4,"Cc1cnc(Nc2cccc(C(=O)N3CCCC3)c2)nc1Nc1ccc2oc(=O)[nH]c2c1 [Compound I-246, 5-(5-methyl-2-(3-(pyrrolidine-1-carbonyl)phenylamino)pyrimidin-4-ylamino)benzo[d]oxazol-2(3H)-one]",< 500 nM
5,"COc1ccc(Nc2ncc(C)c(Nc3ccc4oc(=O)[nH]c4c3)n2)cc1 [Compound I-272, 5-(2-(4-methoxyphenylamino)-5-methylpyrimidin-4-ylamino)benzo[d]oxazol-2(3H)-one]",< 500 nM
6,"COc1ccc(Nc2ncc(C)c(Nc3ccc4oc(=O)[nH]c4c3)n2)cn1 [II-123, N2-(2-methoxypyridin-5-yl)-5-methyl-N4-(2-oxo-2,3-dihydro-1,3-benzoxazol-5-yl)-2,4-pyrimidinediamine]",< 500 nM
7,"CCN1CC2CN(c3ncc(Nc4ncc(C)c(Nc5ccc6oc(=O)[nH]c6c5)n4)cc3Cl)CC2C1 (stereo not drawn) [II-118, N2-[3-chloro-2-(3-ethyl-3,7-diazabicyclo[3.3.0]octan-7-yl)pyridin-5-yl]-5-methyl-N4-(2-oxo-2,3-dihydro-1,3-benzoxazol-5-yl)-2,4-pyrimidinediamine]",< 500 nM
8,"CC(=O)Nc1ccc(Nc2ncc(C)c(Nc3ccc4oc(=O)[nH]c4c3)n2)cc1C(F)(F)F [Compound I-177, N-{4-[5-Methyl-4-(2-oxo-2,3-dihydro-benzooxazol-5-ylamino)-pyrimidin-2-ylamino]-2-trifluoromethyl-phenyl}-acetamide]",< 500 nM
9,"CCN1CC2CN(c3ncc(Nc4ncc(C)c(Nc5ccc6oc(=O)[nH]c6c5)n4)cc3C(F)(F)F)CC2C1 (stereo not drawn) [II-119, N2-[2-(3-ethyl-3,7-diazabicyclo[3.3.0]octan-7-yl)-3-trifluoromethylpyridin-5-yl]-5-methyl-N4-(2-oxo-2,3-dihydro-1,3-benzoxazol-5-yl)-2,4-pyrimidinediamine]",< 500 nM
10,"Cc1cnc(Nc2cccc(C(C)N3CCCC3)c2)nc1Nc1ccc2oc(=O)[nH]c2c1 (stereo not drawn) [Compound I-212, 5-(5-methyl-2-(3-(1-(pyrrolidin-1-yl)ethyl)phenylamino)pyrimidin-4-ylamino)benzo[d]oxazol-2(3H)-one]",< 500 nM
11,"Cc1cnc(Nc2ccc(C(=O)O)c(C(F)(F)F)c2)nc1Nc1ccc2oc(=O)[nH]c2c1 [Compound I-222, 4-(5-methyl-4-(2-oxo-2,3-dihydrobenzo[d]oxazol-5-ylamino)pyrimidin-2-ylamino)-2-(trifluoromethyl)benzoic acid]",500 to 5000 nM
12,"Cc1cc(F)c(Nc2ncc(C)c(Nc3ccc4oc(=O)[nH]c4c3)n2)cc1C [Compound I-530, 5-(2-(2-fluoro-4,5-dimethylphenylamino)-5-methylpyrimidin-4-ylamino)benzo[d]oxazol-2(3H)-one]",< 500 nM
13,"Cc1cnc(Nc2ccc(C(C)N3CCCC3)cc2)nc1Nc1ccc2oc(=O)[nH]c2c1 (stereo not drawn) [Compound I-203, 5-(5-methyl-2-(4-(1-(pyrrolidin-1-yl)ethyl)phenylamino)pyrimidin-4-ylamino)benzo[d]oxazol-2(3H)-one]",< 500 nM
14,"Cc1cnc(Nc2ccc(N3CC4CN(C)CC4C3)nc2)nc1Nc1ccc2oc(=O)[nH]c2c1 (stereo not drawn) [II-120, 5-methyl-N2-[2-(3-methyl-3,7-diazabicyclo[3.3.0]octan-7-yl)pyridin-5-yl]-N4-(2-oxo-2,3-dihydro-1,3-benzoxazol-5-yl)-2,4-pyrimidinediamine]",< 500 nM
15,"Cc1cnc(Nc2ccc(OCCN3CCOCC3)cc2)nc1Nc1ccc2oc(=O)[nH]c2c1 [Compound I-192, 5-{5-Methyl-2-[4-(2-morpholin-4-yl-ethoxy)-phenylamino]-pyrimidin-4-ylamino}-3H-benzooxazol-2-one]",< 500 nM
16,"Cc1cnc(Nc2cnc(N3CCN(C)CC3)c(C)c2)nc1Nc1ccc2oc(=O)[nH]c2c1 [II-26, N4-(benzoxazolin-2-on-5-yl)-N2-[3-methyl-2-(4-methylpiperazin-1-yl)pyridin-5-yl]-5-methylpyrimidine-2,4-diamine]",< 500 nM
17,"Cc1cc(N2CCN(C)CC2)ncc1Nc1ncc(C)c(Nc2ccc3oc(=O)[nH]c3c2)n1 [II-143, N2-[4-methyl-2-(4-methylpiperazino)pyridin-5-yl]-5-methyl-N4-(2-oxo-2,3-dihydro-1,3-benzoxazol-5-yl)-2,4-pyrimidinediamine]",500 to 5000 nM
18,"COc1cc(Nc2ncc(C)c(Nc3ccc4oc(=O)[nH]c4c3)n2)cnc1OC [II-140, N2-(2,3-dimethoxypyridin-5-yl)-5-methyl-N4-(2-oxo-2,3-dihydro-1,3-benzoxazol-5-yl)-2,4-pyrimidinediamine]",< 500 nM

# Same assay, conditions: tested under conditions described in Example 3 (IL-2 stimulated human primary T-cell proliferation); read-out: ability to inhibit JAK3 activity, IC50 range (Table V)
row,Compound,IC50
1,"Cc1cnc(Nc2ccc(OC(F)F)c(Cl)c2)nc1Nc1ccc2oc(=O)[nH]c2c1 [Compound I-314, N2-(3-chloro-4-difluoromethoxy)phenyl-5-methyl-N4-(2-oxo-2,3-dihydro-1,3-benzoxazol-5-yl)-2,4-pyrimidinediamine]",< 500 nM
2,"Cc1cnc(Nc2ccc3c(c2)CN(CC2CC2)C3)nc1Nc1ccc2oc(=O)[nH]c2c1 [III-7, N4-(benzo[d]oxazol-2(3H)-on-5-yl)-N2-(2-cyclopropylmethylylisoindolin-5-yl)-5-methylpyrimidine-2,4-diamine]",< 500 nM
3,"Cc1cnc(Nc2ccc(S(=O)(=O)NC(C)(C)C)cc2)nc1Nc1ccc2oc(=O)[nH]c2c1 [Compound I-112, N4-(benzoxazolin-2-on-5-yl)-N2-[4-N-(t-butyl)aminosulfonylphenyl]-5-methylpyrimidine-2,4-diamine]",< 500 nM
4,"Cc1ccc(Nc2ncc(C)c(Nc3ccc4oc(=O)n(C)c4c3)n2)cc1NS(C)(=O)=O [Compound I-82, N2-((3-methylsulfonylamino-4-methyl)phenyl)-N4-(3-methyl-2-oxo-2,3-dihydrobenzo[d]oxazol-5-yl)-5-methylpyrimidine-2,4-diamine]",< 500 nM
5,"COCCOc1cc(Nc2ncc(C)c(Nc3ccc4oc(=O)[nH]c4c3)n2)cc(C(F)(F)F)c1 [Compound I-384, N2-[3-(2-methoxy)ethoxy-5-trifluoromethyl]phenyl-5-methyl-N4-(2-oxo-2,3-dihydro-1,3-benzoxazol-5-yl)-2,4-pyrimidinediamine]",< 500 nM
6,"Cc1cnc(Nc2ccncc2F)nc1Nc1ccc2oc(=O)[nH]c2c1 [IV-63, N2-(3-fluoropyridin-4-yl)-5-methyl-N4-(2-oxo-2,3-dihydro-1,3-benzoxazol-5-yl)-2,4-pyrimidinediamine]",5000 to 10000 nM
7,"Cc1cnc(Nc2ccc(N(C)S(C)(=O)=O)cc2)nc1Nc1ccc2oc(=O)n(C)c2c1 [Compound I-94, N2-((4-methylsulfonyl-N-methylamino)phenyl)-N4-(3-methyl-2-oxo-2,3-dihydrobenzo[d]oxazol-5-yl)-5-methylpyrimidine-2,4-diamine]",< 500 nM
8,"Cc1ccc(Nc2ncc(C)c(Nc3ccc4oc(=O)[nH]c4c3)n2)cc1OC(C)(C)C(N)=O [Compound I-392, N2-[3-(1-aminocarbonyl-1-methyl)ethoxy-4-methyl]phenyl-5-methyl-N4-(2-oxo-2,3-dihydro-1,3-benzoxazol-5-yl)-2,4-pyrimidinediamine]",< 500 nM
9,"Cc1cnc(Nc2ccc(N3CCOCC3)c(C#N)c2)nc1Nc1ccc2oc(=O)[nH]c2c1 [Compound I-327, N2-(3-cyano-4-morpholino)phenyl-5-methyl-N4-(2-oxo-2,3-dihydro-1,3-benzoxazol-5-yl)-2,4-pyrimidinediamine]",< 500 nM
10,"Cc1cnc(Nc2ccc(N3CCN(C)CC3)c(F)c2)nc1Nc1ccc2oc(=O)[nH]c2c1 [Compound I-281, N2-[3-fluoro-4-(4-methylpiperazino)]phenyl-5-methyl-N4-(2-oxo-2,3-dihydro-1,3-benzoxazol-5-yl)-2,4-pyrimidinediamine]",< 500 nM
11,"COC(c1cccc(Nc2ncc(C)c(Nc3ccc4oc(=O)[nH]c4c3)n2)c1)C(F)(F)F (stereo not drawn) [Compound I-396, N2-[3-(1-methoxy-2,2,2-trifluoroethyl)]phenyl-5-methyl-N4-(2-oxo-2,3-dihydro-1,3-benzoxazol-5-yl)-2,4-pyrimidinediamine]",< 500 nM
12,"CC(=O)N1CCN(c2ccc(Nc3ncc(C)c(Nc4ccc5oc(=O)[nH]c5c4)n3)cc2)CC1 [Compound I-343, N2-[4-(4-acetyl)piperazino]phenyl-5-methyl-N4-(2-oxo-2,3-dihydro-1,3-benzoxazol-5-yl)-2,4-pyrimidinediamine]",< 500 nM
13,"Cc1cnc(Nc2cccc(S(C)(=O)=O)c2)nc1Nc1ccc2oc(=O)n(COP(=O)(O)O)c2c1 [Compound I-33, N4-(3-phosphorylmethylbenzo[d]oxazol-2(3H)-on-5-yl)-N2-((3-methylsulfonyl)phenyl)-5-methylpyrimidine-2,4-diamine]",< 500 nM
14,CS(=O)(=O)c1cccc(Nc2ncc(F)c(Nc3ccc4oc(=O)[nH]c4c3)n2)c1 [Compound I-20],< 500 nM
15,"Cc1cnc(Nc2cccc(S(N)(=O)=O)c2)nc1Nc1ccc2c(c1)oc(=O)n2C [Compound I-63, N2-((3-aminosulfonyl)phenyl)-N4-(3-methyl-2-oxo-2,3-dihydrobenzo[d]oxazol-6-yl)-5-methylpyrimidine-2,4-diamine]",< 500 nM
